Experimental data taken from US12495798B2, “Nicotinamide compound and herbicidal composition comprising compound” (KOREA RESEARCH INSTITUTE OF CHEMICAL TECHNOLOGY, priority 2019, dated 2025).

Key:
Assay type in all cases: in vivo
indian jointvetch [1] = test: Herbicidal activity test against upland field weeds (foliar treatment test); parameters: key to Foliar treatment herbicidal activity, Indian jointvetch: 0 (no control); 100 (complete control); conditions: scale 0-100
Procedure, shortened: (§1)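 Weeds were raised from seed or rootstocks in horticultural soil in a greenhouse (30±5° C., 14/10 h light/dark), then foliage was hand-sprayed with compound at 50 or 75 g a.i./ha in 50% acetone with 0.1% Tween-20. Control was scored visually 0–100 against untreated plants after 14 days, or 21 if needed.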

velvetleaf = test: Herbicidal activity test against upland field weeds (soil treatment test); parameters: key to Soil treatment herbicidal activity, velvet leaf: 0 (no control); 100 (complete control); conditions: scale 0 (no control) to 100 (complete control); for pest or weed control at 50 g/ha: Abutilon theophrasti, read-out: Soil treatment herbicidal activity, velvet leaf
Procedure, shortened: (§2)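 Pre-emergence test: seeds or rootstocks were sown in fertilized sandy loam, and the next day the soil surface was sprayed with compound at 50 or 75 g a.i./ha in 50% acetone/0.1% Tween-20. Plants were grown in a greenhouse (30±5 °C, 14/10 h light/dark), then visually scored 0–100 against untreated at 14 d (21 d if needed).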

indian jointvetch [2] = test: as above; parameters: key to Soil treatment herbicidal activity, Indian jointvetch: 0 (no control); 100 (complete control); conditions: scale 0 (no control) to 100 (complete control)
Procedure, shortened: as §2

quack grass = test: as above; parameters: key to Soil treatment herbicidal activity, quack grass: 0 (no control); 100 (complete control); conditions: scale 0 (no control) to 100 (complete control)
Procedure, shortened: as §2

barnyard grass = test: Herbicidal activity test against upland field weeds (foliar treatment test); conditions: Echinochloa crus-galli, scale 0-100; for pest or weed control at 50 g/ha: 50 g ai/ha
Procedure, shortened: as §1

bindweed [3] = test: as above; conditions: scale 0-100; for pest or weed control at 50 g/ha: 50 g ai/ha
Procedure, shortened: as §1

bindweed [4] = test: Herbicidal activity test against upland field weeds (soil treatment test); parameters: key to Soil treatment herbicidal activity, Bindweed: 0 (no control); 100 (complete control); conditions: scale 0 (no control) to 100 (complete control)
Procedure, shortened: as §2

cocklebur = test: Herbicidal activity test against upland field weeds (foliar treatment test); conditions: Xanthium strumarium, scale 0-100; for pest or weed control at 50 g/ha: 50 g ai/ha
Procedure, shortened: as §1

corn = test: Phytotoxicity test for upland field crops (foliar treatment test); parameters: key: 0 (no harm); 9 (complete withered)
Procedure, shortened: (§3)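 Greenhouse-grown crops (30±5 °C, 14/10 h light/dark) in soil pots were foliar-sprayed with compound in 33% acetone/0.1% Tween-20 at 19˜300 g a.i./ha, 100 ml per m^2. Injury was graded 0 (no harm) to 9 (complete withered) versus untreated control at 7 and 14 days after treatment, or 21 days if needed.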

cotton = test: as above; parameters: key: 0 (no harm); 9 (complete withered)
Procedure, shortened: as §3

rice = test: as above; parameters: key: 0 (no harm); 9 (complete withered)
Procedure, shortened: as §3

soybean = test: as above; parameters: key: 0 (no harm); 9 (complete withered)
Procedure, shortened: as §3

wheat = test: as above; parameters: key: 0 (no harm); 9 (complete withered)
Procedure, shortened: as §3

sorghum = test: Herbicidal activity test against upland field weeds (soil treatment test); parameters: key to Soil treatment herbicidal activity, Sorghum: 0 (no control); 100 (complete control); conditions: scale 0 (no control) to 100 (complete control)
Procedure, shortened: as §2

[5] = 50 g ai/ha, Corn (7 days after treatment)
[6] = 50 g ai/ha, Corn (14 days after treatment)
[7] = 100 g ai/ha, Corn (7 days after treatment)
[8] = 100 g ai/ha, Corn (14 days after treatment)
[9] = 50 g ai/ha, Cotton (7 days after treatment)
[10] = 50 g ai/ha, Cotton (14 days after treatment)
[11] = 100 g ai/ha, Cotton (7 days after treatment)
[12] = 100 g ai/ha, Cotton (14 days after treatment)
[13] = 50 g ai/ha, Rice (7 days after treatment)
[14] = 50 g ai/ha, Rice (14 days after treatment)
[15] = 100 g ai/ha, Rice (7 days after treatment)
[16] = 100 g ai/ha, Rice (14 days after treatment)
[17] = 50 g ai/ha, Soybean (7 days after treatment)
[18] = 50 g ai/ha, Soybean (14 days after treatment)
[19] = 100 g ai/ha, Soybean (7 days after treatment)
[20] = 100 g ai/ha, Soybean (14 days after treatment)
[21] = 50 g ai/ha, Wheat (7 days after treatment)
[22] = 50 g ai/ha, Wheat (14 days after treatment)
[23] = 100 g ai/ha, Wheat (7 days after treatment)
[24] = 100 g ai/ha, Wheat (14 days after treatment)

| Compound | Soil treatment herbicidal activity, quack grass (quack grass; 50 g ai/ha) | pest or weed control at 50 g/ha (barnyard grass) | pest or weed control at 50 g/ha (bindweed [3]) | Soil treatment herbicidal activity, Bindweed (bindweed [4]; 50 g ai/ha) | Foliar treatment phytotoxicity, Corn (corn; [5]) | Foliar treatment phytotoxicity, Corn (corn; [6]) | Foliar treatment phytotoxicity, Corn (corn; [7]) | Foliar treatment phytotoxicity, Corn (corn; [8]) | Foliar treatment phytotoxicity, Cotton (cotton; [9]) | Foliar treatment phytotoxicity, Cotton (cotton; [10]) | Foliar treatment phytotoxicity, Cotton (cotton; [11]) | Foliar treatment phytotoxicity, Cotton (cotton; [12]) | Foliar treatment phytotoxicity, Soybean (soybean; [17]) | Foliar treatment phytotoxicity, Soybean (soybean; [18]) | Foliar treatment phytotoxicity, Soybean (soybean; [19]) | Foliar treatment phytotoxicity, Soybean (soybean; [20]) | Foliar treatment phytotoxicity, Wheat (wheat; [21]) | Foliar treatment phytotoxicity, Wheat (wheat; [22]) | Foliar treatment phytotoxicity, Wheat (wheat; [23]) | Foliar treatment phytotoxicity, Wheat (wheat; [24]) | further results |
| --- | --- | --- | --- | --- | --- | --- | --- | --- | --- | --- | --- | --- | --- | --- | --- | --- | --- | --- | --- | --- | --- |
| Cn1nnnc1NC(=O)c1ccc(C(F)(F)F)nc1OCc1nnnn1C(F)F [Compound No. 1-26, 2-((1-(difluoromethyl)-1H-tetrazol-5-yl)methoxy)-N-(1-methyl-1H-tetrazol-5-yl)-6-(trifluoromethyl)nicotinamide] | 0 | 95% | 60% | 0 | 1 | 0 | 2 | 2 | 2 | 6 | 4 | 9 | 5 | 5 | 5 | 5 | 0 | 0 | 1 | 2 | pest or weed control at 50 g/ha (indian jointvetch [1]; 50 g ai/ha): 70%; Soil treatment herbicidal activity, velvet leaf (velvetleaf; 50 g ai/ha): 100; pest or weed control at 50 g/ha (indian jointvetch [2]; 50 g ai/ha): 70%; pest or weed control at 50 g/ha (cocklebur): 70%; Foliar treatment phytotoxicity, Rice (rice; [13]): 3; Foliar treatment phytotoxicity, Rice (rice; [14]): 6; Foliar treatment phytotoxicity, Rice (rice; [15]): 4; Foliar treatment phytotoxicity, Rice (rice; [16]): 7; plant injury at 50 g/ha (sorghum; Sorghum, 50 g ai/ha): 30% |
| Cn1ncnc1COc1nc(C(F)(F)F)ccc1C(=O)Nc1nnnn1C [Compound No. 1-45, 2-((1-methyl-1H-1,2,4-triazol-5-yl)methoxy)-N-(1-methyl-1H-tetrazol-5-yl)-6-(trifluoromethyl)nicotinamide] | 0 | 95% | 98% | 0 | 1 | 0 | 3 | 2 | 5 | 9 | 5 | 9 | 6 | 7.5 | 7 | 9 | 0 | 0 | 0 | 0 | pest or weed control at 50 g/ha (indian jointvetch [1]; 50 g ai/ha): 70%; Soil treatment herbicidal activity, velvet leaf (velvetleaf; 50 g ai/ha): 100; Soil treatment herbicidal activity, Indian jointvetch (indian jointvetch [2]; 50 g ai/ha): 0; pest or weed control at 50 g/ha (cocklebur): 95%; Foliar treatment phytotoxicity, Rice (rice; [13]): 6; Foliar treatment phytotoxicity, Rice (rice; [14]): 9; Foliar treatment phytotoxicity, Rice (rice; [15]): 6; Foliar treatment phytotoxicity, Rice (rice; [16]): 9; Soil treatment herbicidal activity, Sorghum (sorghum; 50 g ai/ha): 0 |
| Cn1nnnc1COCc1nc(C(F)(F)F)ccc1C(=O)Nc1nnnn1C [Compound No. 1-61, N-(1-methyl-1H-tetrazol-5-yl)-2-(((1-methyl-1H-tetrazol-5-yl)methoxy)methyl)-6-(trifluoromethyl)nicotinamide] | 0 | 95% | 70% | 0 | 0 | 0 | 0 | 0 | 3 | 6 | 0 | 7 | 6 | 9 | 0 | 9 | 4 | 3 | 0 | 6 | Foliar treatment herbicidal activity, Indian jointvetch (indian jointvetch [1]; 50 g ai/ha): 100; pest or weed control at 50 g/ha (velvetleaf; 50 g ai/ha): 90%; Soil treatment herbicidal activity, Indian jointvetch (indian jointvetch [2]; 50 g ai/ha): 100; pest or weed control at 50 g/ha (cocklebur): 98%; Foliar treatment phytotoxicity, Rice (rice; [13]): 4; Foliar treatment phytotoxicity, Rice (rice; [14]): 6; Foliar treatment phytotoxicity, Rice (rice; [15]): 5; Foliar treatment phytotoxicity, Rice (rice; [16]): 6; Soil treatment herbicidal activity, Sorghum (sorghum; 50 g ai/ha): 0 |
| Cn1ncnc1COCc1nc(C(F)(F)F)ccc1C(=O)Nc1nnnn1C [Compound No. 1-102, 2-(((1-methyl-1H-1,2,4-triazol-5-yl)methoxy)methyl)-N-(1-methyl-1H-tetrazol-5-yl)-6-(trifluoromethyl)nicotinamide] | 0 | 80% | 60% | 0 | 6 | 6 | 6 | 8 | 4 | 8 | 5 | 9 | 5 | 8 | 6 | 9 | 2 | 2 | 3 | 3 | pest or weed control at 50 g/ha (indian jointvetch [1]; 50 g ai/ha): 80%; pest or weed control at 50 g/ha (velvetleaf; 50 g ai/ha): 40%; pest or weed control at 50 g/ha (indian jointvetch [2]; 50 g ai/ha): 20%; pest or weed control at 50 g/ha (cocklebur): 80%; Foliar treatment phytotoxicity, Rice (rice; [13]): 6; Foliar treatment phytotoxicity, Rice (rice; [14]): 8; Foliar treatment phytotoxicity, Rice (rice; [15]): 7; Foliar treatment phytotoxicity, Rice (rice; [16]): 9; Soil treatment herbicidal activity, Sorghum (sorghum; 50 g ai/ha): 0 |
| CN(Cc1nnn(C)n1)c1nc(C(F)(F)F)ccc1C(=O)Nc1nnnn1C [Compound No. 2-26, 2-(methyl((2-methyl-2H-tetrazol-5-yl)methyl)amino)-N-(1-methyl-1H-tetrazol-5-yl)-6-(trifluoromethyl)nicotinamide] | – | – | – | – | 0 | 0 | 0 | 0 | 1 | 4 | 2 | 4 | 3 | 9 | 4 | 9 | 1 | 0 | 1 | 0 | pest or weed control at 75 g/ha (indian jointvetch [1]; 75 g ai/ha): 90%; Soil treatment herbicidal activity, velvet leaf (velvetleaf; 75 g ai/ha): 100; Soil treatment herbicidal activity, Indian jointvetch (indian jointvetch [2]; 75 g ai/ha): 100; Soil treatment herbicidal activity, quack grass (quack grass; 75 g ai/ha): 0; pest or weed control at 75 g/ha (barnyard grass; 75 g ai/ha): 98%; pest or weed control at 75 g/ha (bindweed [3]; 75 g ai/ha): 95%; Soil treatment herbicidal activity, Bindweed (bindweed [4]; 75 g ai/ha): 100; pest or weed control at 75 g/ha (cocklebur; 75 g ai/ha): 98%; plant injury at 75 g/ha (sorghum; Sorghum, 75 g ai/ha): 20% |
